For 31 compounds, IC50 results are on record in US20070155779A1, “BICYCLIC HETEROARYL COMPOUNDS AS PDE10 INHIBITORS” (Pfizer Inc, priority 2006, published 2007).

The target of the assay is PDE10 (Homo sapiens, UniProt Q9Y233). The assay can be described thus: PDE10 inhibition, Scintillation Proximity Assay (SPA). It is filed as biochemical. The conditions noted are these: substrate at 1/3 Km, IC50 approximates Ki. The protocol: Assay methods are available to screen a substance for inhibition of cyclic nuticleotide hydrolysis by the PDE10 and the PDEs from other gene families. The cyclic nucleotide substrate concentration used in the assay is ⅓ of the Km concentration, allowing for comparisons of IC50 values across the different enzymes. PDE activity is measured using a Scintillation Proximity Assay (SPA)-based method as previously described (Fawcett et al., 2000), The effect of PDE inhibitors is determined by assaying a fixed amount of enzyme (PDEs 1-11) in the presence of varying substance concentrations and low substrate, such that the IC50 approximates the Ki (cGMP or cAMP in a 3:1 ratio unlabelled to [^3H]-labeled at a concentration of ⅓ Km).). The final assay volume is made up to 100 μl with assay buffer [20 mM Tris-HCl pH 7.4, 5 mM MgCl2, 1 mg/ml bovine serum albumin]. Reactions are initiated with enzyme, incubated for 30-60 min at 30° C. to give <30% substrate turnover and terminated with 50 μl yttrium silicate SPA beads (Amersham) (containing 3 mM of the respective unlabelled cyclic nucleotide for PDEs 9 and 11). Plates are re-sealed and shaken for 20 min, after which the beads were allowed to settle for 30 minutes in the dark and then counted on a TopCount plate reader (Packard, Meriden, Conn.).
Chain of PDE10 (Q9Y233 whole entry): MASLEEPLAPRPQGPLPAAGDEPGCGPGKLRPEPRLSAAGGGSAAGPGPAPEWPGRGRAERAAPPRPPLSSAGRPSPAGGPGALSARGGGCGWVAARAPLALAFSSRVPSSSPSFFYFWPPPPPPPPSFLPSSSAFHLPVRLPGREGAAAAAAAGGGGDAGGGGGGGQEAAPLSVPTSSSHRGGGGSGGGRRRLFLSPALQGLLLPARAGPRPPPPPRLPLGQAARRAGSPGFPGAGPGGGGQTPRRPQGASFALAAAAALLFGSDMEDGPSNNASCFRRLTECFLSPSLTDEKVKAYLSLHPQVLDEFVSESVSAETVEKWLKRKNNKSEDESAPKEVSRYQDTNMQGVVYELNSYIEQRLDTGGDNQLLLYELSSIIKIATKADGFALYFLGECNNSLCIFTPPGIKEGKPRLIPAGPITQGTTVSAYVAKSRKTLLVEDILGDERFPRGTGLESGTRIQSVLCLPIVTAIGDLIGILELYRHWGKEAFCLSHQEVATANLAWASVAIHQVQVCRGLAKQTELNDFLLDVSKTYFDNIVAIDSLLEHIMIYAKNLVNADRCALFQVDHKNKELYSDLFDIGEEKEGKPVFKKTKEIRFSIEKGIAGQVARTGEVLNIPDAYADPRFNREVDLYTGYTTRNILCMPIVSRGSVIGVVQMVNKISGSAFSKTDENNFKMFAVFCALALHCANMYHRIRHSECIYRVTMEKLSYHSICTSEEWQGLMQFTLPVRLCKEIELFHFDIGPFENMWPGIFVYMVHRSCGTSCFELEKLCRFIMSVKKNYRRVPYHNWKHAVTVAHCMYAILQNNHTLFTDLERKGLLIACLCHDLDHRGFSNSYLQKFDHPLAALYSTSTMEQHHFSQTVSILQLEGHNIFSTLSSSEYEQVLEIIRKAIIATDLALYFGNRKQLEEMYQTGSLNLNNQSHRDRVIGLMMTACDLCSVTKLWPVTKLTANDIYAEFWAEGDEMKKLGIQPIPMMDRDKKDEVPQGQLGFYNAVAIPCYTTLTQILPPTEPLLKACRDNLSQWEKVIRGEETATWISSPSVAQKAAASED
Compound `Cn1c(COc2ccc(-c3n[nH]cc3-c3ccncc3)cc2)nc2ccccc21` [Example 1, 1-Methyl-2-[4-(4-pyridin-4-yl-1H-pyrazol-3-yl)-phenoxymethyl]-1H-benzoimidazole] returned an IC50 of 79 nM. Next, `CCn1cc(-c2ccncc2)c(-c2ccc(OCc3nc4ccccc4n3C)cc2)n1` [Example 2, 2-[4-(1-Ethyl-4-pyridin-4-yl-1-H-pyrazol-3-yl)-phenoxylmethyl]-1-methyl-1-1H-benzoimidazole]: 1.38 nM; `C[C@@H](O)Cn1cc(-c2ccncc2)c(-c2ccc(OCc3nc4ccccc4n3C)cc2)n1` [Example 3, 1-{3-[4(1-Methyl-1H-benzoimidazol-2-ylmethoxy)-phenyl]-4-pyridin-4-yl-pyrazol-1-yl)-propan-2-ol]: 2.6 nM; `Cn1c(COc2ccc(-c3oncc3-c3ccncc3)cc2)nc2ccccc21` [Example 4, 1-Methyl-2-[4-(4-pyridin-4-yl-isoxazol-5-yl)-phenoxymethyl]-1-H-benzoimidazole]: 4.94 nM. `Cn1cc(-c2ccncc2)c(-c2ccc(OCc3nc4ccccc4n3C)cc2)n1` [Example 5, 1-Methyl-2-[4-(1-methyl-4-pyridin-4-yl-1H-pyrazol-3-yl)-phenoxymethyl]-1-H-benzoimidazole] yielded an IC50 of 0.56 nM.

Compound `Cn1ncc(-c2ccncc2)c1-c1ccc(OCc2nc3ccccc3n2C)cc1` [Example 6, 1-Methyl-2-[4-(2 methyl-4-pyridin-4-yl-2H-pryazol-3-yl)-phenoxymethyl]-1H-benzoimidazole] displayed an IC50 of 1.84 nM. Next, `Cn1cc(-c2ccncc2)c(-c2ccc(OCc3nc4ccccc4n3CF)cc2)n1` [Example 7, 1-Fluoromethyl-2-[4-(1-methyl-4-pyridin-4-yl-1H-pyrazol-3-yl)-phenoxymethyl]-1H-benzoimidazole]: 0.98 nM; `CC(C)n1c(COc2ccc(-c3nn(C)cc3-c3ccncc3)cc2)nc2ccccc21` [Example 8, 1-Isopropyl-2-[4-(1-methyl-4-pyridin-4-yl-1H-pyrazol-3-yl)-phenoxymethyl]-1H-benzoimidazole]: 8.91 nM.

For `Cn1cc(-c2ccncc2)c(-c2ccc(OCc3nc4ccccc4n3C3CC3)cc2)n1` [Example 9, 1-Cyclopropyl-2-[4-(1-methyl-4-pyridin-4-yl-1H-pyrazol-3-yl)-phenoxymethyl]-1-H-benzoimidazole], the IC50 was 0.69 nM.

As for `COCCn1c(COc2ccc(-c3nn(C)cc3-c3ccncc3)cc2)nc2ccccc21` [Example 10, 1-(2-Methoxy-ethyl)-2[4-(1-methyl-4-pyridin-4-yl-1H-pyrazol-3-yl)-phenoxymethyl]-1H-benzoimidazole], half-maximal inhibition (IC50) required 1.6 nM. Under `Cn1cc(-c2ccncc2)c(-c2ccc(OCc3cn4ccccc4n3)cc2)n1` [Example 11, 2-[4-(1-Methyl-4-pyridin-4yl-1H-pyrazol-3-yl)-phenoxymethyl]-imidazo[1,2-a]pyridine] stands 0.53 nM; under `Cn1ncc(-c2ccncc2)c1-c1ccc(OCc2cn3ccccc3n2)cc1` [Example 12], 0.53 nM; under `Cn1cc(-c2ccncc2)c(-c2ccc(OCc3nc4ccccn4n3)cc2)n1` [Example 13, 2-[4-(1-Methyl-4-pyridin-4-yl-1H-pyrazol-3-yl)-phenoxymethyl]-[1,2,4]triazolo[1,5-a]-pyridine], 1.14 nM. For `FC(F)(F)Cn1cc(-c2ccncc2)c(-c2ccc(OCc3nc4ccccn4n3)cc2)n1` [Example 14, 2-{4-[4-Pyridin-4-yl-1-(2,2,2-trifluoro-ethyl)-1-H-pyrazol-3-yl]-phenoxymethyl}-[1,2,4]triazolo[1,5-a]pyridine], half-maximal inhibition (IC50) was put at 0.56 nM.

`FC(F)(F)Cn1cc(-c2ccncc2)c(-c2ccc(OCc3cn4ccccc4n3)cc2)n1` [Example 15] registered an IC50 of 0.39 nM. The compound `Cn1c(COc2ccc(-c3nn(CC(F)(F)F)cc3-c3ccncc3)cc2)nc2ccccc21` [Example 16, 1-Methyl-2-{4-[4-pyridin-4-yl-1-(2,2,2-trifluoro-ethyl)-1H-pyrazol-3yl]-phenoxymethyl}-1H-benzoimidazole] displayed an IC50 of 0.21 nM. Under `FCn1c(COc2ccc(-c3nn(CC(F)(F)F)cc3-c3ccncc3)cc2)nc2ccccc21` [Example 17, 1-Fluoromethyl-2-{4-[4-pyridin-4-yl-1-(2.2.2-trifluoro-ethyl)-1-H-pyrazol-3-yl]-phenoxymethyl}-1H-benzoimidazole] stands 0.75 nM; under `Cn1cc(-c2ccncc2)c(-c2ccc(OCc3nc4ncccc4n3C)cc2)n1` [Example 18], 9.31 nM. Next, `Cn1cc(-c2ccncc2)c(-c2ccc(OCc3nc4cnccc4n3C)cc2)n1` [Example 19, 1-Methyl-2-[4-(1-methyl-4-pyridin-4-yl-1H-pyrazol-3-yl)-phenoxymethyl]-1-H-imidazo[4,5-c]pyridine]: 133 nM. Under `Cn1cc(-c2ccncc2)c(-c2ccc(OCc3nc4cc(F)c(F)cc4n3C)cc2)n1` [Example 20, 5,6-Difluoro-1-methyl-2-[4-(1-methyl-4-pyridin-4-yl-1H-pyrazol-3-yl)-phenoxymethyl]-1H-benzoimidazole] stands 16.7 nM; under `Cn1cc(-c2ccncc2)c(-c2ccc(OCc3nc4ccccc4s3)cc2)n1` [Example 21, 2-[4-(1-Methyl-4-pyridin-4-yl-1H-pyrazol-3-yl)-phenoxymethyl]-benzothiazole], 0.89 nM; under `FC(F)(F)Cn1cc(-c2ccncc2)c(-c2ccc(OCc3nc4ccccc4s3)cc2)n1` [Example 22, 2-{4-[4-Pyridin-4-yl-1-(2,2 2-trifluoro-ethyl)-1H-pyrazol-3-yl]-phenoxymethyl}-benzothiazole], 1.48 nM. Compound `Cn1cc(-c2ccncc2)c(-c2ccc(OCc3nc4cccc5c4n3CCC5)cc2)n1` [Example 23, 2-[4-(1-Methyl-4-pyridin-4-yl-1H-pyrazol-3-yl)-phenoxymethyl]-5,6-dihydro-4H-imidazo[4,5,1-ij]quinoline] displayed an IC50 of 3.09 nM. Compound `Cc1c(COc2ccc(-c3nn(C)cc3-c3ccncc3)cc2)nc2ccccn12` [Example 24, 3-Methyl-2-[4-(1-methyl-4-pyridin-4-yl-1H-pyrazol-3-yl)-phenoxymethyl]-imidazo[1,2-a]pyridine] yielded an IC50 of 1.4 nM. Under `Cn1cc(-c2ccncc2)c(-c2ccc(OCc3nc4ccccc4n3CC(F)(F)F)cc2)n1` [Example 25, 2-[4-(1-Methyl-4-pyridin-4-yl-1H-pyrazol-3-yl)-phenoxymethyl]-1-(2,2,2trifluoro-ethyl)-1H-benzoimidazole] stands 10 nM; under `Cn1c(COc2ccc(-n3nccc3-c3ccncc3)cc2)nc2ccccc21` [Example 26, 1-Methyl-2-[4-(5-pyridin-4-yl-pyrazol-1-yl)-phenoxymethyl]-1H-benzoimidazole], 3.05 nM. Under `Cn1cc(-c2ccncc2)c(-c2ccc(CCc3nc4ccccc4n3C)cc2)n1` [Example 27, 1-Methyl-2{2-[4-(1methyl-4-pyridin-4-yl-1H-pyrazol-3-yl)-phenyl]-ethyl}-1H-benzoimidazole] stands 16.2 nM; under `Cn1c(COc2ccc(-c3nncn3-c3ccncc3)cc2)nc2ccccc21` [Example 28, 1-Methyl-2[4-(4-pyridin-4-yl-4H-[1,2,4]triazol-3-yl)-phenoxymethyl]-1H-benzoimidazole], 46.3 nM. Under `Cn1cc(-c2ccncc2)c(-c2ccc(OCc3cn4ccsc4n3)cc2)n1` [Example 32, 6-[4-(1-Methyl-4-pyridin-4-yl-1H-pyrazol-3-yl)-phenoxymethyl]-imidazo[2,1-b]thiazole] stands 12 nM; under `Cn1c(COc2ccc(-n3ccnc3-c3ccncc3)cc2)nc2ccccc21` [Example 37, 2-((4-(2-(pyridin-4-yl)-1H-imidazol-1-yl)phenoxy)methyl)-1-methyl-1H-benzo[d]imidazole], 28.8 nM. As for `Oc1ccc(-n2ccnc2-c2ccncc2)cc1` [Preparation 37, 4-(2-(pyridin-4-yl)-1H-imidazol-1-yl)phenol], the IC50 stood at 8.82 nM.
